Measured values: patent US8673910B2, “Proteasome inhibitors for selectively inducing apoptosis in cancer cells” (H. Lee Moffitt Cancer Center and Research Institute, priority 2008, dated 2014)
Where “and” joins values, the source holds several entries; their conditions need not be identical. Equal values may be shown once. Read-outs that look alike come from different tables or passages of the source.

Columns and labels:
A549 lung cancer cells = assay: MTT metabolism assay; format: cell-based; conditions: Homo sapiens, mean ± SD of 3 to 5 experiments, read-out: IC50 for cell viability measured by MTT assay
Procedure: (§1) Cells were plated in 96-well plates in 100 μl medium and allowed to attach overnight. […] Media was aspirated after 24 or 72 hours and replaced with 100 μl complete media containing 1 mg/ml MTT and incubated for three hours at 37° C. in 5% CO2 humidified incubator. Media was then aspirated and DMSO was added. Cells were incubated for 10 min at room temperature while shaking, and the absorbance was determined at 540 nm using a μQuant spectrophotometric plate reader (Bio-TEK, Winooski, Vt.).

CaLu-1 lung cancer cells = assay: MTT metabolism assay; format: cell-based; conditions: Homo sapiens, mean ± SD of 3 to 5 experiments, read-out: IC50 for cell viability measured by MTT assay
Procedure: as §1

[1] = tested on: DU-145 prostate cancer cells; assay: MTT metabolism assay; format: cell-based; conditions: Homo sapiens, read-out: IC50 for cell viability measured by MTT assay
Procedure: as §1

[2] = tested on: HPDE6-C7 (C7) pancreatic epithelial cells; assay: MTT metabolism assay; format: cell-based; conditions: Homo sapiens, HPDE6c7, mean ± SD of 3 to 5 experiments, read-out: IC50 for cell viability measured by MTT assay
Procedure: as §1

[3] = tested on: HPDE6-C7-Kras (C7-Kras) pancreatic cancer cells; assay: MTT metabolism assay; format: cell-based; conditions: Homo sapiens, Pancreatic cancer cell, mean ± SD of 3 to 5 experiments, read-out: IC50 for cell viability measured by MTT assay
Procedure: as §1

[4] = tested on: LNCaP prostate cancer cells; assay: MTT metabolism assay; format: cell-based; conditions: Homo sapiens, mean ± SD of 3 to 5 experiments, read-out: IC50 for cell viability measured by MTT assay
Procedure: as §1

[5] = tested on: MCF-10A breast epithelial cells; assay: MTT metabolism assay; format: cell-based; conditions: Homo sapiens, mean ± SD of 3 to 5 experiments, read-out: IC50 for cell viability measured by MTT assay
Procedure: as §1

[6] = tested on: RPMI-8226 multiple myeloma cells; assay: MTT metabolism assay; format: cell-based; conditions: Homo sapiens, mean ± SD of 3 to 5 experiments, read-out: IC50 for cell viability measured by MTT assay
Procedure: as §1

[7] = tested on: T80 ovarian epithelial cells; assay: MTT metabolism assay; format: cell-based; conditions: Homo sapiens, Epithelial cell, mean ± SD of 3 to 5 experiments, read-out: IC50 for cell viability measured by MTT assay
Procedure: as §1

[8] = tested on: U266 multiple myeloma cells; assay: MTT metabolism assay; format: cell-based; conditions: Homo sapiens, U-266, mean ± SD of 3 to 5 experiments, read-out: IC50 for cell viability measured by MTT assay
Procedure: as §1

[9] = tested on: T80-Hras ovarian cancer cells; assay: MTT metabolism assay; format: cell-based; conditions: Homo sapiens, mean ± SD of 3 to 5 experiments, read-out: IC50 for cell viability measured by MTT assay
[10] = tested on: primary multiple myeloma cells isolated from patients' bone marrow; assay: Proliferation of primary multiple myeloma cells (Trypan blue); format: cell-based, human; conditions: primary MM cells, 24 h treatment, Table 5: one value per patient, mean over patients
Procedure: (§2) MM patients' bone marrow samples were collected from Liquid Tissue Bank facility. Freshly isolated bone marrow samples were fractionated by Ficoll-Paque (Pharmacia Biotech, Piscataway, N.J.) sedimentation. The mononuclear cellular layer was then resuspended in RPMI-1640 containing 10% heat-inactivated fetal bovine serum, 10 mM HEPES (pH 7.4), sodium pyruvate, L-glutamine, and 1% penicillin-streptomycin.
Adherent cells were harvested using trypsinization and pooled with suspension cells from media supernatant by pelleting at 300 g for 5 min at 4° C. The cells were then resuspended in an appropriate volume of media by pipetting gently up and down. Two 20 μl aliquots were removed and combined with an equal volume of 0.4% Trypan blue and allowed to mix for 1 minute. A 10 μl volume was loaded onto a hemacytometer and cells were scored as live or dead based on Trypan blue dye exclusion and the percentage of dead cell number to total cell number was calculated. To calculate the percentage of proliferation, the number of live cells in the treated samples was divided by the number of live cells in the untreated vehicle control.

[11] = tested on: primary multiple myeloma cells isolated from patients' bone marrow; assay: Viability of primary multiple myeloma cells (MTT assay); format: cell-based, human
Procedure: as §2
Cells were plated in 96-well plates in 100 μl medium and allowed to attach overnight. […] […] Media was then aspirated and DMSO was added. Cells were incubated for 10 min at room temperature while shaking, and the absorbance was determined at 540 nm using a μQuant spectrophotometric plate reader (Bio-TEK, Winooski, Vt.).

[12] = tested on: MCF-7 breast cancer xenografts; assay: Antitumor study of human tumor xenografts in nude mice (MCF-7); format: in vivo; conditions: 1 mpk i.p. 2× weekly; for average tumor size of MCF-7 derived xenografts: start at about 200 mm^3
Procedure: (§3) Nude mice (Charles River Laboratories, Wilmington, Mass.) were maintained and treated in accordance with the Institutional Animal Care and Use Committee procedures and guidelines. Seven days before inoculation with MCF-7 cells, the animals were fully anesthetized for subcutaneous implantation of estradiol pellets (0.25 mg per pellet, 60-day release; Innovative Research of America, Sarasota, Fla.) on the dorsal surface of mice. Exponentially growing MCF-7 and A549 cells were harvested via trypsinization, pelleted at 300 g for 5 minutes, resuspended in sterile PBS (Invitrogen) at 10^7 cells per 100 μl, and injected into each flank of mice. The tumor xenografts were monitored with an electronic caliper every other day for 16 days. Tumor volume was calculated using the formula V=W^2L, where width is the largest diameter and length is the smallest diameter. When the tumors reached ˜200 mm^3, the animals were randomized and treatment schedules were implemented. […] 2 hours after the last injections animals were sacrificed via CO2 inhalation, and then tumors and livers were harvested and snap frozen in liquid N2.

[13] = tested on: A549 lung cancer xenografts; assay: Antitumor study of human tumor xenografts in nude mice (A549); format: in vivo; conditions: 1 mpk i.p. 2× weekly; for average tumor size of A549-derived xenografts: start at about 200 mm^3
Procedure: as §3

[14] = molecular target: T1, tumor CT-L activity (A549 tumors) (Homo sapiens, UniProt P20618+P28074); assay: Proteasome activity in A549 tumor lysates after in vivo treatment; design: species or system nude mice; conditions: mouse, ip; A549 tumors extracted 2 hours after last i.p. injection (1 mpk), vs DMSO-treated controls
T1 construct: from tissue; host or cells: A549 human lung tumour xenografts grown in nude mice
Procedure: (§4) To determine proteasome activity in whole cell extracts from cultured cells (5 μg) or tumor and liver tissue extracts (30 μg) from nude mice, the same assay was used except that the buffer was changed to 20 mM HEPES, 0.5 mM EDTA, pH 8.0.
(§5) Whole cell extracts were prepared as follows: Cells were harvested, washed with PBS twice, and homogenized in a lysis buffer (50 mM Tris-HCl, pH 8.0, 5 mM EDTA, 150 mM NaCl, 0.5% NP-40) for 30 min at 4° C. Cell extracts from tumors and livers of nude mice were prepared in 50 mM HEPES, 0.5 mM EDTA, pH 8.0. Cell lysates were centrifuged at 12,000 g for 15 min, and the supernatants were collected as whole cell extracts.
(§6) Nude mice (Charles River Laboratories, Wilmington, Mass.) were maintained and treated in accordance with the Institutional Animal Care and Use Committee procedures and guidelines. […] Exponentially growing MCF-7 and A549 cells were harvested via trypsinization, pelleted at 300 g for 5 minutes, resuspended in sterile PBS (Invitrogen) at 10^7 cells per 100 μl, and injected into each flank of mice. The tumor xenografts were monitored with an electronic caliper every other day for 16 days. Tumor volume was calculated using the formula V=W^2L, where width is the largest diameter and length is the smallest diameter. When the tumors reached ˜200 mm^3, the animals were randomized and treatment schedules were implemented. […]

[15] = molecular target: T2, tumor T-L activity (A549 tumors) (Homo sapiens, UniProt Q99436); assay: as above; design: species or system nude mice; conditions: mouse, ip; A549 tumors extracted 2 hours after last i.p. injection (1 mpk), vs DMSO-treated controls
T2 construct: from tissue; host or cells: A549 human lung tumour xenografts grown in nude mice
Procedure: as §4, §5, §6

[16] = molecular target: T3, hepatic CT-L, T-L, and PGPH activities (Mus musculus, UniProt O09061+O55234+P70195+Q60692); assay: Proteasome activities in livers of tumor-bearing mice after in vivo treatment; design: species or system nude mice; conditions: livers extracted 2 hours after last i.p. injection (1 mpk)
T3 construct: from tissue; host or cells: liver of tumour-bearing nude mice (Charles River)
Procedure: as §4, §5, §6

[17] = molecular target: tumor PGPH activity (A549 tumors) (Homo sapiens, UniProt P28072); assay: Proteasome activity in A549 tumor lysates after in vivo treatment
Procedure: as §4, §5, §6

[18] = read-out: Proliferation 24 h (IC50 values)
[19] = read-out: Viability 24 h (IC50 values), primary MM cells, 24 h, Table 5: one value per patient, mean over patients

SMILES	IC50 (A549 lung cancer cells; A549, 24 h) [nM]	IC50 (A549 lung cancer cells; A549, 72 h) [nM]	IC50 (CaLu-1 lung cancer cells; CaLu-1, 24 h) [nM]	IC50 (CaLu-1 lung cancer cells; CaLu-1, 72 h) [nM]	IC50 ([1]; DU-145, 24 h) [nM]	IC50 ([1]; DU-145, 72 h) [nM]	IC50 ([2]; C7, 24 h) [nM]	IC50 ([2]; C7, 72 h) [nM]	IC50 ([3]; 24 h) [nM]	IC50 ([3]; 72 h) [nM]	IC50 ([4]; 24 h) [nM]	IC50 ([4]; 72 h) [nM]	IC50 ([5]; 24 h) [nM]	IC50 ([5]; 72 h) [nM]	IC50 ([6]; RPMI-8226, 24 h) [nM]	IC50 ([6]; RPMI-8226, 72 h) [nM]	IC50 ([7]; T80, 24 h) [nM]	IC50 ([7]; T80, 72 h) [nM]	IC50 ([8]; U266, 24 h) [nM]	IC50 ([9]; 24 h) [nM]	other results
CC(C)C[C@H](NC(=O)[C@H](Cc1ccccc1)NC(=O)c1cnccn1)B(O)O [Bortezomib, reference compound]	> 30000	410 ± 70	> 30000	22 ± 2	> 30000	25 ± 2	> 30000	32 ± 1	> 30000	28 ± 6	> 30000	57 ± 4	> 30000	150 ± 74	49 ± 25	26 ± 3	> 30000	14 ± 1	> 30000	> 30000	IC50 ([10]; Homo sapiens, Multiple myeloma cell, read-out: Proliferation 24 h (IC50 values, μM)): > 10 µM; IC50 [10, 18]: > 10 µM; IC50 ([11]; primary MM cells, 48 h, Table 5: one value per patient, b176: mean over patients, listed as bortezomib, read-out: Viability 48 h (IC50 values)): 140 ± 80 nM; IC50 [11, 19]: 190 nM and 280 nM; IC50 ([11]; read-out: Viability 72 h (IC50 values), primary MM cells, 72 h, Table 5: one value per patient, b176: mean over patients, listed as bortezomib): 46 ± 8 nM; antitumor effect in MCF-7 xenografts, in words [12]: appeared to be ineffective in the nude mouse model; average tumor size of MCF-7 derived xenografts [12]: 1,448±145 mm^3; average tumor size of A549-derived xenografts [13]: 864±207 mm^3; inhibition at 1 mg/kg [14]: 70%; inhibition at 1 mg/kg [15]: 0%; effect on proteasome activities in livers of tumor-bearing mice [16]: significantly inhibited hepatic CT-L, T-L, and PGPH activities; inhibition of tumor PGPH activity ([17]; A549 tumors extracted 2 hours after last i.p. injection (1 mpk), vs DMSO-treated controls): 68%
O=C1C(Cl)=C(Nc2ccc(S(=O)(=O)Nc3ccccn3)cc2)C(=O)c2ccccc21 [PI-083, 4-(3-chloro-1,4-dioxo-1,4-dihydronaphthalen-2-ylamino)-N-(pyridin-2-yl)benzenesulfonamide]	41000 ± 17000	11000 ± 6700	7300 ± 430	4900 ± 1200	8600 ± 630	5000 ± 720	5100 ± 530	4200 ± 1600	2400 ± 230	1900 ± 200	14000 ± 2800	5200 ± 1100	17000 ± 860	4200 ± 2100	7400 ± 380	10000 ± 4000	2700 ± 530	1700 ± 390	23000 ± 1700	1500 ± 570	IC50 ([8]; U266, 72 h): 7000 ± 1500 nM; IC50 ([9]; 72 h): 2100 ± 400 nM; IC50 [10, 18]: 6.6 µM and 1.3 µM and 2.2 µM and 2.6 µM and 1.7 µM and 2.8 µM and 10 µM and 5 µM and 2.9 µM; IC50 ([11]; primary MM cells, 48 h, Table 5: one value per patient, b176: mean over patients, read-out: Viability 48 h (IC50 values)): 1790 nM and 2600 nM and 3600 nM and 900 nM and 1500 nM; IC50 [11, 19]: > 10000 nM and 2200 nM and 3400 nM and 1800 nM and 2000 nM; IC50 ([11]; read-out: Viability 72 h (IC50 values), primary MM cells, 72 h, Table 5: one value per patient, b176: mean over patients): 1600 nM and 2200 nM and 2600 nM and 1300 nM and 1800 nM and 350 nM; tumor growth inhibition, MCF-7 xenografts [12]: 84%; average tumor size of MCF-7 derived xenografts [12]: about 396±137 mm^3; tumor growth inhibition, A549 xenografts [13]: 54%; average tumor size of A549-derived xenografts [13]: about 511±134 mm^3; inhibition at 1 mg/kg [14]: 43%; inhibition at 1 mg/kg [15]: 12%; effect on proteasome activities in livers of tumor-bearing mice [16]: did not inhibit liver proteasome activities; inhibition at 1 mg/kg ([17]; A549, mouse, ip, read-out: inhibition of tumor PGPH activity): 34%
